Residues, ends and D or L forms follow the SMILES beside them.
Experiments:
[1] = system: DENV-2/NGC; assay: Dengue replication (plaque) assay in VERO cells; format: cell-based, Dengue virus
Description: 1×10^6 Vero E6 cells were plated per well into a 6-wells plate and incubated overnight at 37° C. Next day, the DENV-2/NGC virus stock was diluted to 10^4 TICD50/ml, 10^3 TICD50/ml, 10^2 TICD50/ml and 1 ml of the respective virus dilutions was added to each well. Wells contained approximately 80% confluent monolayers of Vero cells. After an incubation period of 1 hour at 37° C., cells were washed twice with medium (DMEM) and medium containing 2% methyl cellulose was added to the wells. To this medium C16-KAK-C16 10 uM was added (W) in DMSO, or an equivalent amount of DMSO (0.05%) was added (W/O). Plate was incubated at 37° C. for two days. Methyl cellulose overlays were removed and cells were fixed with absolute ethanol. Cells were subsequently incubated with specific DENY monoclonal antibody for 1 hour at 37° C., followed by incubation with HRPO-labeled rabbit-anti mouse conjugate. Positive plaques were counted after incubation with AEC substrate chromogen.
The experiment was performed as described in the legend of FIG. 8 at a viral dose of 10^3 TICD50/ml in all plates.
C16-KAK-C16 was subsequently tested in a standard Dengue replication (plaque) assay in VERO cells (FIG. 8). […] In a separate experiment this was confirmed with a constant intermediate viral load of and different concentrations of C16-KAK-C16 (FIG. 9)

[2] = molecular target: T1, Dengue NS3-NS2B peptidase (Dengue virus type 2, UniProt P14340); assay: Dengue NS3-NS2B peptidase hydrolysis of Abz-AKRRSQ-EDDnp; format: biochemical; details: 50 mM Tris-HCl pH 9.0, FIG. 5
T1 construct: The active site of the dengue protease is in the N-terminal part of NS3
T1 sequence (P14340 1476-1653): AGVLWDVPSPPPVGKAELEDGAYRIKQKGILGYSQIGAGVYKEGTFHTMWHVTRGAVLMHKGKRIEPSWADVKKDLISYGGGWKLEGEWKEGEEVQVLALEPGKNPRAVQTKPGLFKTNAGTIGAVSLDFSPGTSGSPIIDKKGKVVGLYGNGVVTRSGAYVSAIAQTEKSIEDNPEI
Description: FIG. 5A, FIG. 5B and FIG. 5C show Dengue NS3-NS2B peptidase hydrolysis of Abz-AKRRSQ-EDDnp (SEQ ID NO:1) in 50 mM Tris-HCl pH 9.0. FIG. 5A Inhibitors: (◯) C16-KAAK-C16 (SEQ ID NO:42), (▪)C16-KAK-C16, (▴)C16-KGGK-C16(SEQ ID NO:41). FIG. 5B Substrates: (◯) Abz AKRRSQ-EDDnp (SEQ ID NO:1) and (●) Suc AAPF-MCA with different concentrations of C16-KGGK-C16 (SEQ ID NO:41). FIG. 5C Followed in time at different C16-KGGK-C16 (SEQ ID NO:41) concentrations.
FIG. 6A and FIG. 6B show Dengue NS3-NS2B peptidase hydrolysis of Abz AKRRSQ-EDDnp (SEQ ID NO:1) in the presence of C16-KK-C16 (KR), C16-KAK-C16 (KAK), C16-KAAK-C16 (KAAK; (SEQ ID NO:42)), C16-KAAAAK-C16 (KAAAAK; (SEQ ID NO:53)), C16-KGK-C16 (KOK), C16-KGGK-C16 (KOOK; (SEQ ID NO:41)), and C16-KGGGK-C16 (KGGGK; (SEQ ID NO:40)). “◯” means enzyme activity without inhibitor. FIG. 6A E+K means that the inhibitor+enzyme were pre-incubated for 0, 15 and 30 min and then the substrate was added. FIG. 6B K means that the inhibitor was pre-incubated for 0, 15 and 30 min and then the enzyme and substrate were added.
The best substrate for dengue protease is Abz-AKRR↓SQ-EDDnp (SEQ ID NO:1) [Gouvea et al., 2007]. […] Geminoids with either G or A are inhibitors of Dengue protease, but which is the better inhibitor does depend on the nature of the substrates (compare FIG. 5a and Table 1). […]

Compound | inhibition of plaque formation ([1]; 10 uM, Vero E6 cells, DENV-2/NGC 10^2-10^4 TICD50/ml, two days, depending on the viral load) | virus replication (in words) ([1]; VERO cells, DENV-2/NGC) | inhibition of Dengue protease with substrate Abz-AKRRSQ-EDDnp (in words) [2]
CCCCCCCCCCCCCCCCNC(=O)[C@H](CCCCN)NC(=O)[C@H](C)NC(=O)[C@H](CCCCN)NC(=O)CCCCCCCCCCCCCCC [C16-KAK-C16] | up to 90% | significant reduction of virus replication | 
CCCCCCCCCCCCCCCCNC(=O)[C@H](CCCCN)NC(=O)CNC(=O)CNC(=O)[C@H](CCCCN)NC(=O)CCCCCCCCCCCCCCC [C16-KGGK-C16, C15H31CO-KGGK-NH—C16H33] (HELM PEPTIDE1{[CCCCCCCCCCCCCCCC(=O)[*:2]].K.G.G.K.[CCCCCCCCCCCCCCCCN[*:1]]}$$$$V2.0) |  |  | does not depend on the choice of substrate
